From EPA's ToxValDB 9.5 (doi:10.2903/j.efsa.2018.5130)
Values after ≈ are worked out from the molar mass of the structure shown.

Legend:
Aphidius rhopalosiphi = assay: LR50; higher = less toxic; conditions: acute; mortality
Tagia sp. = conditions: chronic/long-term; growth
Phasianus sp. = conditions: acute; duration: 14 days; oral; unspecified; mortality
Folsomia candida = conditions: chronic/long-term; duration: 28 days; reproduction
Pleurozium sp. = conditions: acute; duration: 72 hours; growth
Apis mellifera = conditions: acute, mortality
Mus musculus = conditions: acute, oral, mortality
Daphnia magna = conditions: chronic/long-term; duration: 21 days; reproduction
Rattus norvegicus = conditions: developmental; development
Bibionidae = conditions: chronic/long-term; duration: 28 days; development
Neomysis kadiakensis = conditions: acute; duration: 96 hours; mortality

`COP(=S)(OC)Oc1c(Cl)cc(C)cc1Cl` [Tolclofos-methyl] gave an LR50 (Aphidius rhopalosiphi) of 43.7 g/ha, an NOEC (Tagia sp.) of 60 mg/kg and an NOAEL (Anas platyrhynchos; reproductive, duration: 19 weeks) of 77 mg/kg-day. The LD50 (Anas platyrhynchos; short-term, duration: 8 days, oral, feed, mortality) was greater than 1620 mg/kg-day, the LD50 (Phasianus sp.) was greater than 5000 mg/kg-day and the NOEC (Folsomia candida) was 11 mg/kg. For the same compound, the NOEC (Pleurozium sp.) was 0.14 mg/L, the LD50 (Apis mellifera; duration: 48 hours, oral, unspecified) was greater than 264 µg/piece and the LD50 (Apis mellifera; duration: 72 hours, dermal) was 456 µg/piece. The LD50 (Mus musculus; F) was 3600 mg/kg-day, the LD50 (Mus musculus; M) was 3500 mg/kg-day and the LC50 (Oncorhynchus mykiss; acute, duration: 96 hours, mortality) was 0.69 µg/mL (≈ 2.29 µM). The NOEC (Oncorhynchus mykiss; chronic/long-term, growth) was 0.012 mg/L, the NOEC (Daphnia magna) was 0.026 mg/L and the NOAEL (Rattus norvegicus) was 70.6 mg/kg-day. It also gave an NOEC (Bibionidae) of 0.25 mg/L and an LC50 (Neomysis kadiakensis) of 0.089 µg/mL (≈ 0.296 µM).
